Test results as given in patent US8178119B2, “Method for the acaricidal finishing of textile materials” (Sanitized AG, priority 2004, dated 2012).

Tests used:
Assay type in all cases: in vivo
house dust mites [1] = test: Method 1: live adult house dust mites counted on the textile sample after 6 or 8 weeks, change versus initial value
Procedure: (§1) The textile sample is cut to a size of 8×8 cm and placed on a glass plate of the same size. About 50 house dust mites in the adult stage, which were counted under the microscope, were placed in the center of the sample. Other stages were likewise present of course but are not counted. Some food (see method 2) is added. A 5 mm thick rubber plate with a 30 mm diameter hole in the middle is placed on the sample. The hole is covered from the top with a filter paper, and a metal plate with a hole in the middle is placed on the filter paper such that the hole is congruently positioned above the hole in the rubber plate. The sample plates thus prepared are fixed with clips and are then incubated for 6 or 8 weeks in an incubator at saturated humidity at 25° C. […] In this method, the change in the number of mites compared with the initial value is calculated. The test is carried out in duplicate. • 2. The AFNOR NF G 39-011 test method, as carried out for example by TEC Laboratory, […], again utilizes 50 adult house dust mites, Dermatophagoides pteronyssinus, per test sample, which come from a stock culture from INRA Bordeaux and were bred for several years at 76% humidity at 25° C. in the complete absence of insecticides. The mites were fed on a mixture of wheat germ and brown brewer's yeast. The test is carried out at 17 to 23° C. The test duration is six weeks, and the mites are counted after they were driven out by application of heat. The test is carried out in quadruplicate. The reduction in the number of mites after six weeks compared with a non-finished control sample is determined.

house dust mites [2] = test: Effect against house dust mites, method not stated (one of the two methods); conditions: for cuts in the number of mites: without zinc pyrithione, at concentrations normally used for antimicrobial finishing, reduction to zero mites not quite achieved; for growth in the population of mites by a factor: control factor 2.6
Text: On polyurethane foams based on polyester polyol, 2000 ppm of zinc pyrithione allowed a growth in the population of mites by a factor of 1.6, which is only insignificantly less than the corresponding control sample at a factor of 2.6. In the case of plasticized PVC, even 3000 ppm of zinc pyrithione allowed a growth in the population of mites by a factor of 1.4, while the PVC control sample returned a growth of again by a factor of 2.6. Both values are insufficient for the protection of the finished articles against colonization by mites, but they do form the basis for enhancement of the protection without the complete effect having to be supplied by the other active, permethrin for example.
Testing of the effect against house dust mites was carried out in the experiments according to one of the two methods described hereinbelow: • 1. The textile sample is cut to a size of 8×8 cm and placed on a glass plate of the same size. About 50 house dust mites in the adult stage, which were counted under the microscope, were placed in the center of the sample. Other stages were likewise present of course but are not counted. Some food (see method 2) is added. A 5 mm thick rubber plate with a 30 mm diameter hole in the middle is placed on the sample. The hole is covered from the top with a filter paper, and a metal plate with a hole in the middle is placed on the filter paper such that the hole is congruently positioned above the hole in the rubber plate. The sample plates thus prepared are fixed with clips and are then incubated for 6 or 8 weeks in an incubator at saturated humidity at 25° C. After the period of 6 or 8 weeks, the living adult mites were again counted under the microscope. In this method, the change in the number of mites compared with the initial value is calculated. The test is carried out in duplicate. • 2. The AFNOR NF G 39-011 test method, as carried out for example by TEC Laboratory, F-64600 Anglet, again utilizes 50 adult house dust mites, Dermatophagoides pteronyssinus, per test sample, which come from a stock culture from INRA Bordeaux and were bred for several years at 76% humidity at 25° C. in the complete absence of insecticides. The mites were fed on a mixture of wheat germ and brown brewer's yeast. The test is carried out at 17 to 23° C. The test duration is six weeks, and the mites are counted after they were driven out by application of heat. The test is carried out in quadruplicate. The reduction in the number of mites after six weeks compared with a non-finished control sample is determined.

[3] = system: Dermatophagoides pteronyssinus; test: Method 2: AFNOR NF G 39-011 test, reduction in number of mites after six weeks versus non-finished control; conditions: cotton/polyester mattress ticking
Procedure: as §1

Compound	reduction in the number of live mites, average (house dust mites [1]; Example 11: 1000 ppm on cotton, 6 weeks, control growth rate 273%) [%]	reduction in the number of live mites (house dust mites [1]; Example 11: 1400 ppm on polyester furniture covering fabric, 6 weeks, control growth rate 273%) [%]	cuts in the number of mites (house dust mites [2])	live mites on samples after the test (house dust mites [1]; Example 3: 1.0% of aqueous dispersion comprising 15% zinc pyrithione padded with 3% NUVA TTC or 4% NUVA HPU or 4% NUVA HPC onto cotton, polyester or polyamide, cured 150° C. 90 seconds)	live mites on samples after the test (house dust mites [1]; Example 6: 0.4% of aqueous formulation comprising 48% zinc pyrithione padded with wetting agent and nonionized surfactant onto woven cotton, dried 180° C. 1 minute)	mite inhibition rate (MIR) compared with the non-finished control fabric, average ([3]; Example 5: 1.0% of formulation comprising 15% zinc pyrithione with 3% to 5% acrylate copolymers) [%]	mites on samples after the test ([3]; Example 5: 1.2% of formulation comprising 15% zinc pyrithione with 3% to 5% acrylate copolymers)	mites on samples after the test ([3]; Example 5: 1.5% of formulation comprising 15% zinc pyrithione with 3% to 5% acrylate copolymers)	growth in the population of mites by a factor (house dust mites [2]; plasticized PVC, 3000 ppm of zinc pyrithione)	growth in the population of mites by a factor (house dust mites [2]; polyurethane foams based on polyester polyol, 2000 ppm of zinc pyrithione)
Oc1cc(Cl)ccc1Oc1ccc(Cl)cc1Cl [triclosan]	57	38	fairly good cuts in the number of mites							
CCCCCCCCn1sccc1=O [2-n-octylisothiazolin-3-one]			fairly good cuts in the number of mites							
zinc pyrithione				no longer any live mites	no longer any live mites	99.3	completely free of mites	completely free of mites	1.4	1.6
